Assay results reported in ChEMBL document CHEMBL5500383, “Recent advances and future directions on small molecule VEGFR inhibitors in oncological conditions” (Eur J Med Chem, 2024).
Values after ≈ are worked out from the molar mass of the structure shown.

What was measured:
Histone deacetylase 4 = Histone deacetylase 4 (Homo sapiens, UniProt P56524); experiment: Inhibition of HDAC4 (unknown origin)
T47D = experiment: Antiproliferative activity against human T47D cells assessed as growth inhibition at 10 uM after 48 hrs by sulforhodamine B assay relative to control; format: functional; set-up: scale not given: the % may be the effect or the level left
A498 [1] = experiment: Antiproliferative activity against human A498 cells assessed as growth inhibition at 10 uM after 48 hrs by sulforhodamine B assay relative to control; format: functional; set-up: scale not given: the % may be the effect or the level left
A498 [2] = experiment: Cytotoxicity against human A498 cells assessed as reduction in cell viability incubated for 48 hrs by MTT assay; format: functional, cell-based; conditions: A498, 48 h
CAKI-1 = experiment: Cytotoxicity against human CAKI-1 cells assessed as reduction in cell growth incubated for 48 hrs by MTT assay; format: functional, cell-based; conditions: CAKI-1, 48 h
HepG2 [3] = experiment: Anticancer activity against human HepG2 cells assessed as reduction in cell growth incubated for 24 hrs by MTT assay; format: functional, cell-based; conditions: HepG2, 24 h
[4] = Acute toxicity in ip dosed Swiss albino mouse assessed as lethal dose; format: organism-based; conditions: in vivo, read-out: ALD50
HCT-116 [5] = experiment: Cytotoxicity against human HCT-116 cells assessed as inhibition of cell growth incubated for 48 hrs by MTT assay; format: functional, cell-based; conditions: HCT-116, 48 h
[6] = target: T1, Vascular endothelial growth factor receptor 2 (Homo sapiens, UniProt P35968); experiment: Inhibition of VEGFR2 (unknown origin)
T1 sequence (P35968 whole entry): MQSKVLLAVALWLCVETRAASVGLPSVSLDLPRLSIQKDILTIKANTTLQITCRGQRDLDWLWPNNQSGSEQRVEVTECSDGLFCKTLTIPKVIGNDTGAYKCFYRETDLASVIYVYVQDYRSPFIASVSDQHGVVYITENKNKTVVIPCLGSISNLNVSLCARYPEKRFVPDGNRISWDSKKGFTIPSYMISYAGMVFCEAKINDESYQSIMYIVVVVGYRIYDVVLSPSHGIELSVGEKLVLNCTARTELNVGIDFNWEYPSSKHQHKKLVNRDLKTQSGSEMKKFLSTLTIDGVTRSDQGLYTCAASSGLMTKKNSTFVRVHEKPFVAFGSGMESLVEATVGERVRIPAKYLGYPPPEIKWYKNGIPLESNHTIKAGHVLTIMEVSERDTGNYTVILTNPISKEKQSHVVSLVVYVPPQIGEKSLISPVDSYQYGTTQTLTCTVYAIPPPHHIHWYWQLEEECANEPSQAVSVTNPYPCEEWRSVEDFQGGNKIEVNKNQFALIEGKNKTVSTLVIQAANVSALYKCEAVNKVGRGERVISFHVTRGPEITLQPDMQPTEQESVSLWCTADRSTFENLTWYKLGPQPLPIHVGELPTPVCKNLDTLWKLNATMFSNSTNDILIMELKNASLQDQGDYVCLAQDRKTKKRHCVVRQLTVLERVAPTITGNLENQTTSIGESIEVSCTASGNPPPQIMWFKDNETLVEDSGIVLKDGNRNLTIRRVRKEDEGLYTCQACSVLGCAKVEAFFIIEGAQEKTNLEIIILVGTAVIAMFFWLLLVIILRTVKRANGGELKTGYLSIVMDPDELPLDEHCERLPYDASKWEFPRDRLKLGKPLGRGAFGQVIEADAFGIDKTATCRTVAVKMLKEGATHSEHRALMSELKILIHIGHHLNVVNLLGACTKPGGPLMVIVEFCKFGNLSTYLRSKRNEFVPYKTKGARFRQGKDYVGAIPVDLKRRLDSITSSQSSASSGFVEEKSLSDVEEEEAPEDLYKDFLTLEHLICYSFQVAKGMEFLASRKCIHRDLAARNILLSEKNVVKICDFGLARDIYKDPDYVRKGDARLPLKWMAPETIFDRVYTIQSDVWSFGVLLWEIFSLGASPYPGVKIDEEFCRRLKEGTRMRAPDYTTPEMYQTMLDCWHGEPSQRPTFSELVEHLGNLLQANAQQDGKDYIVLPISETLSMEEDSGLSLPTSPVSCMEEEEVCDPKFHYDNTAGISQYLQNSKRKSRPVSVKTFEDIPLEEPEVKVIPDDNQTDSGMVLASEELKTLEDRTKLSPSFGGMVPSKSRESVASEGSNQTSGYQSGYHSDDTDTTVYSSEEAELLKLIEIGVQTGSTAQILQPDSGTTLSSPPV

PC-3 [7] = experiment: Cytotoxicity against human PC-3 cells assessed as inhibition of cell growth incubated for 48 hrs by MTT assay; format: functional, cell-based; conditions: PC-3, 48 h
HepG2 [8] = experiment: Cytotoxicity against human HepG2 cells assessed as inhibition of cell growth incubated for 48 hrs by MTT assay; format: functional, cell-based; conditions: HepG2, 48 h
MCF7 [9] = experiment: Cytotoxicity against human MCF7 cells assessed as inhibition of cell growth incubated for 48 hrs by MTT assay; format: functional, cell-based; conditions: MCF7, 48 h
MCF7 [10] = experiment: Antiproliferative activity against human MCF7 cells assessed as reduction in cell viability incubated for 24 hrs by MTT assay; format: functional, cell-based; conditions: MCF7, 24 h
HepG2 [11] = experiment: Antiproliferative activity against human HepG2 cells assessed as reduction in cell viability incubated for 24 hrs by MTT assay; format: functional, cell-based; conditions: HepG2, 24 h
PC-3 [12] = experiment: Antiproliferative activity against human PC-3 cells assessed as reduction in cell viability incubated for 24 hrs by MTT assay; format: functional, cell-based; conditions: PC-3, 24 h
[13] = Cytotoxicity against human WI-38 cells assessed as reduction in cell growth; format: toxicity, cell-based
HL-60 = experiment: Cytotoxicity against human HL-60 cells assessed as reduction in cell growth; format: functional, cell-based
[14] = target: T1, Vascular endothelial growth factor receptor 2; experiment: Inhibition of human VEGFR2 by discoverX kinome scan assay
MCF7 [15] = experiment: Cytotoxicity against human MCF7 cells assessed as reduction in cell viability measured after 72 hrs by MTT assay; format: functional, cell-based; conditions: MCF7, 72 h
[16] = target: T1, Vascular endothelial growth factor receptor 2; experiment: Inhibition of human recombinant VEGFR2 using biotinylated poly-GluTyr (4:1) as susbtrate measured for 1 hr by ELISA method
HepG2 [17] = experiment: Cytotoxicity against human HepG2 cells assessed as reduction in cell viability measured after 72 hrs by MTT assay; format: functional, cell-based; conditions: HepG2, 72 h
[18] = Cytotoxicity against African green monkey Vero cells assessed as inhibition of cell growth incubated for 24 hrs by MTT assay; format: toxicity, cell-based, Chlorocebus sabaeus
HCT-116 [19] = experiment: Cytotoxicity against human HCT-116 cells assessed as reduction in cell viability measured after 72 hrs by MTT assay; format: functional, cell-based; conditions: HCT-116, 72 h
[20] = target: T1, Vascular endothelial growth factor receptor 2; experiment: Inhibition of VEGFR2 (unknown origin) by Z'-Lyte kinase assay
[21] = target: Vascular endothelial growth factor receptor 1 (Homo sapiens, UniProt P17948); experiment: Inhibition of VEGFR1 (unknown origin)
[22] = target: Vascular endothelial growth factor receptor 3 (Homo sapiens, UniProt P35916); experiment: Inhibition of VEGFR3 (unknown origin)
Vascular endothelial growth factor receptor 3, sequence (P35916 whole entry): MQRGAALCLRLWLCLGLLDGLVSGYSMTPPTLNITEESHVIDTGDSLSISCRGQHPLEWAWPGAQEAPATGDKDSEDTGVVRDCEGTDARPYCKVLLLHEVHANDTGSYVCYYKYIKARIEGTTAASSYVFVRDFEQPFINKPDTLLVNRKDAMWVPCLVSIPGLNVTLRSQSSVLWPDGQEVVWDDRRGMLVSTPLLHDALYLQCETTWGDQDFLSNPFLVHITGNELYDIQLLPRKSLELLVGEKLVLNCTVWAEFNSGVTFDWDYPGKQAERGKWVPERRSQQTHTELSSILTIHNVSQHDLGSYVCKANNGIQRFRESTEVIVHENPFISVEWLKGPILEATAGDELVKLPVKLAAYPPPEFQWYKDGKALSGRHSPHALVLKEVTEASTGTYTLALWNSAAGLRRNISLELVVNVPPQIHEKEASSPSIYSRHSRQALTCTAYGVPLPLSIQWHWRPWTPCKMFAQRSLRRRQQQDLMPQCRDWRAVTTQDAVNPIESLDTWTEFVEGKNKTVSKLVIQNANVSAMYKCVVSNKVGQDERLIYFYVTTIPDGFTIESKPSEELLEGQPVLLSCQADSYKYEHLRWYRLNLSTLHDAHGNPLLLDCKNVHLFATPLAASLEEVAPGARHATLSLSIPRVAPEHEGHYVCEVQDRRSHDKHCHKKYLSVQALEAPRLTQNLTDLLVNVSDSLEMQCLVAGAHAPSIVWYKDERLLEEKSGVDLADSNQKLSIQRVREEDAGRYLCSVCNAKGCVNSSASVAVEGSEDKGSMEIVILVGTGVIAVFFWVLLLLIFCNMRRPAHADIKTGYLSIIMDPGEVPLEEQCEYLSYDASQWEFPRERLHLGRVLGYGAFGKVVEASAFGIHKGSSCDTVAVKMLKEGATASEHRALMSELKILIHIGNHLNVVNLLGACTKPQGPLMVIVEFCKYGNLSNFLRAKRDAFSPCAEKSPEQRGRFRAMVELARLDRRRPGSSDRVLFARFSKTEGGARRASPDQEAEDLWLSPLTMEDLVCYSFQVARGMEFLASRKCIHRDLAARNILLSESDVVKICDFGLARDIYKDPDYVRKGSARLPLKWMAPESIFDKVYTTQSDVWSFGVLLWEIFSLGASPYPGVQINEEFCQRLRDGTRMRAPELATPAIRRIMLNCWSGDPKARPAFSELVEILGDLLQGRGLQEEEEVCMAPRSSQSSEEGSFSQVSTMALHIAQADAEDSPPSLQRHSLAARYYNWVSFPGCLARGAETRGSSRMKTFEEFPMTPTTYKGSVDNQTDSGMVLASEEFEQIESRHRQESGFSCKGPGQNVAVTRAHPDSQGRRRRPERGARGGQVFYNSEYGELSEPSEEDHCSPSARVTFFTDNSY

[23] = target: T2, Protein deacetylase HDAC6 (Homo sapiens, UniProt Q9UBN7); experiment: Inhibition of HDAC6 (unknown origin)
T2 sequence (Q9UBN7 whole entry): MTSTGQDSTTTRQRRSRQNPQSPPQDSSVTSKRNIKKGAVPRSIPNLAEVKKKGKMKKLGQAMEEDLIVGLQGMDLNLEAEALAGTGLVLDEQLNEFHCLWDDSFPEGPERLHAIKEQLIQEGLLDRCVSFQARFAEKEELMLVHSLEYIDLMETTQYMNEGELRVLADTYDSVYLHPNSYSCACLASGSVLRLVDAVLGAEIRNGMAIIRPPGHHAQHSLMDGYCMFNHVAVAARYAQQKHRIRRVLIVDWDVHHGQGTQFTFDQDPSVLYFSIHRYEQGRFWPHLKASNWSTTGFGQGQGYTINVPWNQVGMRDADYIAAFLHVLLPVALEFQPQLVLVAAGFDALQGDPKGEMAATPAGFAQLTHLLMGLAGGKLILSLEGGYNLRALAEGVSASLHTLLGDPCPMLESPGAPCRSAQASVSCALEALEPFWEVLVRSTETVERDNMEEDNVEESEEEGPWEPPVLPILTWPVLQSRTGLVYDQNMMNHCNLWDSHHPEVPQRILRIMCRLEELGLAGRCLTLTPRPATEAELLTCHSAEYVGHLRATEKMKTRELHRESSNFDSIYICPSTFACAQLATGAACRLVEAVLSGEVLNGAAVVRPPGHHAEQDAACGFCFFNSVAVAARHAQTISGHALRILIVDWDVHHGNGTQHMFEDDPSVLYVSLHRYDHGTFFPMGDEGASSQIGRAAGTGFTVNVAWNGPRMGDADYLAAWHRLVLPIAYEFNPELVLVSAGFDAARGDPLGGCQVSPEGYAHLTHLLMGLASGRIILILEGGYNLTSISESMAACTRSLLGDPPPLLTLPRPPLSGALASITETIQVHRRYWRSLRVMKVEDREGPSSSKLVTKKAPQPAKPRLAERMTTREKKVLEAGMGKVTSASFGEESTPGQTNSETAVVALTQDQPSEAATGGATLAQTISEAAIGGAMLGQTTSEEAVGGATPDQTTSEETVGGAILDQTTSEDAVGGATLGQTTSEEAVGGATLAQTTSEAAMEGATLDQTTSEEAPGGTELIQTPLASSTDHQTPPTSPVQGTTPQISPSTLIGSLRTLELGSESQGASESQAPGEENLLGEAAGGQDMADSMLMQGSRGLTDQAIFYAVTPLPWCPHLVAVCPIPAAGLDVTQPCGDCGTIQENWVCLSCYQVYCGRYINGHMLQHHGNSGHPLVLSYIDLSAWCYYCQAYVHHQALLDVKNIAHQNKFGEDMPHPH

Histone deacetylase 1 = Histone deacetylase 1 (Homo sapiens, UniProt Q13547); experiment: Inhibition of HDAC1 (unknown origin)
Histone deacetylase 1, sequence (Q13547 whole entry): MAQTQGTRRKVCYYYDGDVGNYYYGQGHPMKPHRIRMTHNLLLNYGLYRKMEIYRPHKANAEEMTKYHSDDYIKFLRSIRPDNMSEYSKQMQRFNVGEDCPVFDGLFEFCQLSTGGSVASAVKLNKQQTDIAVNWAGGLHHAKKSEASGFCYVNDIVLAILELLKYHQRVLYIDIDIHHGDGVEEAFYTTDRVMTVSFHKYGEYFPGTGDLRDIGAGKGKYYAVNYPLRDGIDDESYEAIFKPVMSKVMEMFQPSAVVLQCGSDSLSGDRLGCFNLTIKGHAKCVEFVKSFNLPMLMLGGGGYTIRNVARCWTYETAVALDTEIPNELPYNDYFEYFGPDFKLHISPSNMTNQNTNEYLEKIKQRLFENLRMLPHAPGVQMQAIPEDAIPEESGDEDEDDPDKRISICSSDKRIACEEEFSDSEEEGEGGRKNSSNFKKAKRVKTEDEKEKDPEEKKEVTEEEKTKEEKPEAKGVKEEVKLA

A549 = experiment: Antiproliferative activity against human A549 cells assessed as reduction in cell viability; format: functional, cell-based
NCI-H1975 = experiment: Antiproliferative activity against human NCI-H1975 cells assessed as reduction in cell viability; format: functional, cell-based
NCI-H441 = experiment: Antiproliferative activity against human NCI-H441 cells assessed as reduction in cell viability; format: functional, cell-based
NCI-H1650 = experiment: Antiproliferative activity against human NCI-H1650 cells assessed as reduction in cell viability; format: functional, cell-based
[24] = target: Serine/threonine-protein kinase B-raf (Homo sapiens, UniProt P15056); experiment: Inhibition of wild type BRAF (unknown origin)
[25] = target: Serine/threonine-protein kinase B-raf (Homo sapiens, UniProt P15056, V600E); experiment: Inhibition of BRAF V600E mutant (unknown origin)
Serine/threonine-protein kinase B-raf (Homo sapiens, UniProt P15056, V600E), sequence (P15056 2-766 V600E limits assumed): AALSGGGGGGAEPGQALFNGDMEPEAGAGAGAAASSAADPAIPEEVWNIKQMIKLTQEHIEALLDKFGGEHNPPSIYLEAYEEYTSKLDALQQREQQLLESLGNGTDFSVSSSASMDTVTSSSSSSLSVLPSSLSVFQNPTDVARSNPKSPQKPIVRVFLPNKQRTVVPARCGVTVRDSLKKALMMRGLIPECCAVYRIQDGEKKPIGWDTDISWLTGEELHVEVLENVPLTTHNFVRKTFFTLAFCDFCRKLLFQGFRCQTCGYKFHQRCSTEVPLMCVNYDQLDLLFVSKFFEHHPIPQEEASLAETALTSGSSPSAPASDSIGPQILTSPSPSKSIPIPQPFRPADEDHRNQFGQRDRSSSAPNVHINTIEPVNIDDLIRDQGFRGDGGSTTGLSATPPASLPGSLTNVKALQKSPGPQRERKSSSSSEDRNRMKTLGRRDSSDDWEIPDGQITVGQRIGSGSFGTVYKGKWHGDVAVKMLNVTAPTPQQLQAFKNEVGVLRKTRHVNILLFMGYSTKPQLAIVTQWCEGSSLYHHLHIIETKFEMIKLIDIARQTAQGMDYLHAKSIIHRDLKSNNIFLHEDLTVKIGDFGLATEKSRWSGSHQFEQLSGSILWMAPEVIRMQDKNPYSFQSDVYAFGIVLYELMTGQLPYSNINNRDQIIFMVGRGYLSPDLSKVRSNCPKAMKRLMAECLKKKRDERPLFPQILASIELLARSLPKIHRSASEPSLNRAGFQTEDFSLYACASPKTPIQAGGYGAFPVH

[26] = target: T1, Vascular endothelial growth factor receptor 2; experiment: Inhibition of VEGFR2 (unknown origin) incubated for 1 hr in presence of ATP by ELISA method
[27] = target: T1, Vascular endothelial growth factor receptor 2; experiment: Inhibition of VEGFR2 (unknown origin) by kinase profiling assay
[28] = Cytotoxicity against HUVEC cells assessed as cell growth inhibition incubated for 72 hrs by MTT assay; format: toxicity, cell-based; conditions: human

Histone deacetylase 4, sequence (P56524 whole entry): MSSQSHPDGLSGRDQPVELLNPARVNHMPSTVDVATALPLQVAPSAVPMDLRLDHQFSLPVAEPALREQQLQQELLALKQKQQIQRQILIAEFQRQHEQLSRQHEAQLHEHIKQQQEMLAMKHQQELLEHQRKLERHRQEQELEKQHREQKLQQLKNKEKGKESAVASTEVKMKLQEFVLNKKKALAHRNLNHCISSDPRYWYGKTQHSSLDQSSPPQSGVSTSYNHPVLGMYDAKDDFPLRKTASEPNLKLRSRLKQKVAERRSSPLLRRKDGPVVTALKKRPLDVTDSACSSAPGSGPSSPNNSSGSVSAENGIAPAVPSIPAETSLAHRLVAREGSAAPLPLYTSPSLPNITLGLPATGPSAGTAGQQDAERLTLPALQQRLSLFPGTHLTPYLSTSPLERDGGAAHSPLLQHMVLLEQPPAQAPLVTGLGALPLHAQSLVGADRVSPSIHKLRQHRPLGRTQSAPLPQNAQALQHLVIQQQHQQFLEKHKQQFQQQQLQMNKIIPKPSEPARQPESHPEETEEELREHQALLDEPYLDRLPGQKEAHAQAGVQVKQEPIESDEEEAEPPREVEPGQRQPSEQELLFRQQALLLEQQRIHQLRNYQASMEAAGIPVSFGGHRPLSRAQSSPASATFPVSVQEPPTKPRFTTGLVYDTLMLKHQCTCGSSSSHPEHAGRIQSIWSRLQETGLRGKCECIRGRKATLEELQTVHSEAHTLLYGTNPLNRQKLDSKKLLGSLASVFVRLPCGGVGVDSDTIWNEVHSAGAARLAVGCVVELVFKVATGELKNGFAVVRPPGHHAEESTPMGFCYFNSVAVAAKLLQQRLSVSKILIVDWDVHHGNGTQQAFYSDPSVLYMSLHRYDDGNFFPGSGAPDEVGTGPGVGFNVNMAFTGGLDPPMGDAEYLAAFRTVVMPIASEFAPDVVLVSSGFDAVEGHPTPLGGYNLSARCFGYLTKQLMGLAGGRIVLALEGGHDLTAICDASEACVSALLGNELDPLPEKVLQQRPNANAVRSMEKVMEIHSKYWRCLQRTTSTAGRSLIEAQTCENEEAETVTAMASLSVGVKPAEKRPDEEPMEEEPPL

With `Cc1c2ccc(N(C)c3ccnc(Nc4ccc(C(=O)Nc5ccccc5N)cc4)n3)cc2nn1C` as the molecule, how does the IC50 (Histone deacetylase 4) read?
Its IC50 is greater than 10 µM.

Which results are given for `O=C(Nc1ccccc1)Nc1ccc(Nc2ncnc3sc4c(c23)CCOC4)cc1`?
Activity (T47D): 85.5%; Activity (A498 [1]): 77.65%

What does the source list for `COc1ccc(/C=N/n2c(SCC(=O)c3ccc(Cl)cc3)nnc2-c2cc3ccccc3[nH]2)cc1`?
IC50 (A498 [2]): 2.2 µM; IC50 (CAKI-1): 0.89 µM

Which IC50 (HepG2 [3]) does the source give for `CCOc1ccc(Nc2nnc3c4c(cccc24)NC(=S)N3Cc2ccccc2)cc1` here?
Its IC50 is 0.22 µM.

What about the LD50 [4] of the same molecule?
Its LD50 is greater than 800 mg/kg.

With `N=c1cc(N)nc2sc(NC(=O)c3cccs3)nn12` as the molecule, how does the IC50 (HCT-116 [5]) read?
The IC50 was 33.1 µM.

And the IC50 [6]?
Its IC50 is 8.2 µM.

And the IC50 (PC-3 [7])?
The IC50 was 7.76 µM.

What about the IC50 (HepG2 [8]) of the same molecule?
The IC50 was 4.22 µM.

And the IC50 (MCF7 [9])?
Its IC50 is 8.45 µM.

With `CCn1c(SCC(=O)NNC(=O)c2ccccc2)nc2ccc([N+](=O)[O-])cc2c1=O` as the molecule, how does the IC50 (MCF7 [10]) read?
Its IC50 is 30.8 µg/mL (≈ 72.2 µM).

And the IC50 (HepG2 [11])?
The IC50 was 17.2 µg/mL (≈ 40.3 µM).

What about the IC50 (PC-3 [12]) of the same molecule?
The IC50 was 26.1 µg/mL (≈ 61.1 µM).

For `C/C(=N\NC(=S)Nc1ccccc1)c1nnn(-c2ccc(F)cc2)c1C`, which IC50 [6] is on record?
The IC50 was 0.067 µM.

And the IC50 [13]?
The IC50 was 56.6 µM.

What about the IC50 (HL-60) of the same molecule?
Its IC50 is 1.09 µM.

With `CCNC(=S)NS(=O)(=O)c1ccc(NC(=O)CSc2cc3ccccc3c(=O)n2CC)cc1` as the molecule, how does the IC50 [14] read?
Its IC50 is 3.1 µM.

Which IC50 (MCF7 [15]) does the source give for `Cc1cc(C)nc(NS(=O)(=O)c2ccc(NN=C3C(=O)NNC3=O)cc2)n1` here?
The IC50 was 10.6 µM.

And the IC50 [16]?
Its IC50 is 0.14 µM.

What about the IC50 (HepG2 [17]) of the same molecule?
Its IC50 is 6.43 µM.

What about the IC50 at 24 h [18] of the same molecule?
The IC50 at 24 h was 39.4 µM.

What about the IC50 (HCT-116 [19]) of the same molecule?
The IC50 was 9.66 µM.

For `O=C1C(=O)N(CN2CCN(c3cc(=O)[nH]c4ccc(F)cc34)CC2)c2ccccc21`, which IC50 [20] is on record?
The IC50 was 0.0638 µM.

Which IC50 [6] does the source give for `Cc1c2ccc(Nc3ccnc(Nc4ccc(NC(=O)CCCCCCC(=O)NO)cc4)n3)cc2nn1C` here?
Its IC50 is 0.016 µM.

And the IC50 [21]?
The IC50 was 0.018 µM.

What about the IC50 (Histone deacetylase 4) of the same molecule?
The IC50 was greater than 10 µM.

What about the IC50 [22] of the same molecule?
The IC50 was 0.054 µM.

What about the IC50 [23] of the same molecule?
The IC50 was 0.094 µM.

What about the IC50 (Histone deacetylase 1) of the same molecule?
The IC50 was 0.12 µM.

What does the source list for `COc1ccc(C2CC(c3ccc(Cl)cc3Cl)=NN2c2nc(C)c(C(=O)Nc3ccccc3)s2)cc1OC` (stereo unspecified)?
IC50 (A549): 2.92 µM; IC50 (NCI-H1975): 4.41 µM; IC50 (NCI-H441): 3.8 µM; IC50 (NCI-H1650): 3.54 µM

Which IC50 [6] does the source give for `O=C(CSc1nc2sc3c(c2c(=O)n1-c1ccc(Cl)cc1)CCCC3)NNC(=O)Nc1ccc(Cl)c(C(F)(F)F)c1` here?
The IC50 was 0.049 µM.

And the IC50 [24]?
The IC50 was 0.05 µM.

What about the IC50 [25] of the same molecule?
The IC50 was 0.063 µM.

Which IC50 [26] does the source give for `CNC(=O)c1nc(Nc2ccc(NC(=O)Nc3cccc(C)c3)cc2)c2ccccc2n1` here?
Its IC50 is 0.0121 µM.

With `COc1ccc(-c2cc3c(ccn4nc(-c5cccnc5)nc34)o2)cc1` as the molecule, how does the IC50 [14] read?
Its IC50 is 38.7 µM.

And the IC50 [27]?
Its IC50 is 38.7 µM.

What about the IC50 at 72 h [28] of the same molecule?
The IC50 at 72 h was 17.4 µM.

Which IC50 (A549) does the source give for `CCOC(=O)c1sc(N2N=C(c3ccc(Cl)cc3Cl)CC2c2ccc(OC)cc2)nc1C` (stereo unspecified) here?
The IC50 was 4.22 µM.

What about the IC50 (NCI-H1975) of the same molecule?
Its IC50 is 6.16 µM.

And the IC50 (NCI-H441)?
The IC50 was 4.76 µM.

What about the IC50 (NCI-H1650) of the same molecule?
Its IC50 is 5.68 µM.
